Assay results taken from PubChem BioAssay (NCI).
Where “and” joins values, the source holds several entries; their conditions need not be identical. Equal entries are not always repeated.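 These data come from cells grown in 96-well plates and exposed to compound for 48 hours at five concentrations. GI50 = concentration required for 50% inhibition of growth. TGI: total growth inhibition.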

What was measured:
Assay in all cases: NCI anticancer screen, dose series, 48 h
[1] = tested on: BT-549 breast
[2] = tested on: HS 578T breast
[3] = tested on: CAKI-1 renal
[4] = tested on: SNB-19 CNS
[5] = tested on: KM12 colon
[6] = tested on: HOP-62 NSCLC
[7] = tested on: MDA-MB-231 breast
[8] = tested on: SN12C renal
[9] = tested on: MDA-MB-435
[10] = tested on: SR leukemia

SMILES | GI50 [1] | TGI [1] | GI50 [2] | TGI [2] | GI50 [3] | TGI [3] | GI50 [4] | TGI [4] | GI50 [5] | TGI [5] | GI50 [6] | TGI [6] | GI50 [7] | TGI [7] | GI50 [8] | TGI [8] | GI50 [9] | TGI [9] | GI50 [10] | TGI [10]
Cc1ccn2c(-c3csc(Nc4cccc(O)c4)n3)c(C)nc2c1 | 0.781 µM | 33.6 µM | 1.17 µM | 29.3 µM | 1.21 µM | 21.2 µM | 4.66 µM | 77.4 µM | 0.273 µM | 16.4 µM | 0.638 µM | 19.1 µM | 0.751 µM | 11.6 µM | 0.946 µM | 27.8 µM | 0.059 µM | 0.281 µM | 0.2 µM | 
COc1ccc(-c2nnc(Nc3nc(O)c(C4=c5cc(OC(F)(F)F)ccc5=NC4=O)s3)o2)cc1 | 19.7 µM | 37.7 µM | 38.3 µM | > 100 µM | 12.4 µM | 69.2 µM | 9.67 µM | 31.2 µM | 3.75 µM | 19.6 µM | 15.7 µM | 30.3 µM | 13.9 µM | 30.3 µM | 16.5 µM | 40.5 µM | 7.46 µM | > 100 µM | 9 µM | 34.2 µM
COc1ccc(Oc2nc(Nc3ccc(N4CCOCC4)cc3)ncc2NC(=O)Nc2cc(OC)cc(OC)c2)cc1 | 1.59 µM | 7.98 µM | 8 µM | > 33.3 µM | 4.24 µM | 13.5 µM | 4.66 µM | 28.8 µM | 1.82 µM | 15.3 µM | 5.48 µM | 22.2 µM | 0.992 µM | 3.33 µM | 1.17 µM | 4.5 µM | 2.33 µM | 17.1 µM | 6.76 µM | > 33.3 µM
Nc1nc2c(c(=O)[nH]1)N=C(COP(=O)(O)OP(=O)(O)O)CN2 |  | > 100 µM |  | > 100 µM |  | > 100 µM |  | > 100 µM |  | > 100 µM |  | > 100 µM |  | > 100 µM |  | > 100 µM |  | > 100 µM |  | > 100 µM
Cc1ccc(-c2c3c(N)nc(-c4ccncc4)nc3nc3c2c(C)nn3-c2ccccc2)cc1 | 7.38 µM | 17.9 µM | 5.92 µM | > 37.5 µM | > 37.5 µM | > 37.5 µM | > 37.5 µM | > 37.5 µM | 31.4 µM | > 37.5 µM | 0.647 µM | 1.95 µM | 4.51 µM | 13.4 µM | 2.58 µM | > 37.5 µM | 12.6 µM | > 37.5 µM | 7.09 µM | 23.8 µM
CCOC(=O)C1=C(C)NC(C)=C(C(=O)OCC)C1c1cc(Br)c(O)c(OC)c1 | 2.8 µM | 10.6 µM | 2.54 µM | 9.47 µM | 4.79 µM | 30.8 µM | 4.25 µM | 16.8 µM | 3.74 µM | 14 µM | 4.37 µM | 14.7 µM | 6.15 µM | 20.4 µM | 6.07 µM | 22.5 µM | 1.85 µM | 6.2 µM | 2.01 µM | 21.2 µM
C/C(=C\CCc1ccsc1)CC/C=C(\C)CCCN1CCN(CCO)CC1 | 2.78 µM | 10.9 µM | 2.7 µM | 8.07 µM | 4.26 µM | 16.4 µM | 4.4 µM | 21 µM | 2.38 µM | 5.66 µM | 2.6 µM | 6.4 µM | 1.6 µM | 4.18 µM | 4.13 µM | 19.2 µM | 2.84 µM | 8.66 µM | 1.93 µM | 4.71 µM
S=C(Nc1ccc(Cl)cc1)SC1CCCCC1 |  | > 100 µM |  | > 100 µM |  | > 100 µM |  | 53.6 µM |  | 95.7 µM |  | 87.5 µM |  | > 100 µM |  | 51.3 µM |  | > 100 µM |  | > 100 µM
CCN1CCN(CC(=O)Nc2nc3ccc(NCc4ccc(C)cc4)cc3s2)CC1 | 6.45 µM | 19.3 µM | 5.12 µM | 15.9 µM | 3.48 µM | 10.5 µM | 5.98 µM | 13.5 µM | 5.67 µM | 13.8 µM | 2.02 µM | 8.03 µM | 2.72 µM | 10 µM | 4.11 µM | 11.1 µM | 1.05 µM | 2.3 µM | 1.8 µM | 8.37 µM
NC(Cc1ccc(O)cc1)C(=O)N/N=C/c1ccc(N(CCCl)CCCl)cc1 (stereo not given) | 19.3 µM | > 100 µM | 32 µM | > 100 µM | 1.83 µM | 18.4 µM | 29.9 µM | > 100 µM | 24.6 µM | > 100 µM | 11.1 µM | > 100 µM | 5.25 µM | 32.6 µM | 1.42 µM | > 100 µM | 12.2 µM | 65.4 µM | 0.189 µM | 20.4 µM
O=C(O)c1ccccc1-c1ccccc1C(=O)Nc1ccc2c(c1)Cc1ccccc1-2 |  | 69.4 µM |  | > 100 µM |  | > 100 µM |  | > 100 µM |  | > 100 µM |  | > 100 µM |  | > 100 µM |  | > 100 µM |  | > 100 µM |  | 65.1 µM
CCOP(=O)(CCN1CCN(CCCCCOc2cc3c(cc2OC)C(=O)N2CCC[C@H]2C=N3)CC1)OCC | 5.96 µM | 31.7 µM | 3.54 µM | 31.1 µM | 5.84 µM | 97.9 µM | 5.65 µM | > 100 µM | 12.1 µM | 36.3 µM | 23 µM | > 100 µM | 4.55 µM | > 100 µM | 5.18 µM | > 100 µM | 3.36 µM | 17.3 µM | 1.39 µM | 4.25 µM
COC(=O)c1c2c(c(C)[n+]([O-])c1C)C(=O)C=C(NCc1ccc(Br)cc1)C2=O | 1.15 µM | 2.53 µM | 2.4 µM | 8.05 µM | 0.0597 µM | 1.64 µM | 1.23 µM | 2.48 µM | 0.171 µM | 1.81 µM | 1.05 µM | 2.47 µM | 0.3 µM | 3.82 µM | 0.581 µM | 1.74 µM | 0.095 µM | 0.243 µM | 1.7 µM | > 100 µM
CC[C@@]1(O)C(=O)OCc2c1cc1n(c2=O)Cc2cc3c(Cl)c4c(cc3nc2-1)OCO4 | < 0.001 µM | 0.897 µM and 0.382 µM |  | > 100 µM | < 0.001 µM | > 100 µM | 0.00125 µM | 0.26 µM | 0.162 µM and 0.108 µM | > 100 µM | < 0.001 µM |  | 0.00975 µM and 0.0722 µM | > 100 µM | < 0.001 µM |  | 0.0193 µM and 0.0229 µM | > 100 µM | < 0.001 µM | 
Cc1ccc2c(n1)C(=O)C(Cl)=C(Nc1ccc(N3CCN(C)CC3)cc1)C2=O | 1.61 µM | 2.97 µM | 2.47 µM | 7.49 µM | 1.68 µM | 3.08 µM | 9.46 µM | 21.7 µM | 10.2 µM | 23.5 µM | 3.63 µM | 14.7 µM | 1.73 µM | 3.19 µM | 1.72 µM | 3.1 µM | 1.88 µM | 3.46 µM | 2.78 µM | 9.06 µM
O=S1CCN(Cc2ccc(-c3ccc4ncnc(Nc5ccc(OCc6ccccc6)c(F)c5)c4c3)o2)CC1 | 7.88 µM | > 22.8 µM | 8.89 µM | > 25 µM | 0.394 µM | > 25 µM | 23.4 µM | > 25 µM | 10.1 µM | > 25 µM | 13.8 µM | > 25 µM | 7.07 µM | > 23.7 µM | 8.07 µM | > 25 µM | 7.21 µM | > 24.2 µM | 9.29 µM | > 25 µM
[CH3][Sn]([CH3])([CH3])[O]C(=O)C(O)c1ccccc1 (stereo not given) | 17.9 µM | > 100 µM | 11.5 µM | 59.8 µM | 4.95 µM | 34.5 µM | 17 µM | > 89.2 µM | 8.78 µM | > 100 µM | 2.12 µM | 4.4 µM | 39.2 µM | > 100 µM | 8.7 µM | 99 µM | 3.52 µM | 14.8 µM | 20.7 µM | > 100 µM
CCOC(=O)c1c(C(F)(F)F)n([O-])c2ccc(Cl)cc2[n+]1=O | 2.02 µM | 4.95 µM | 2.17 µM | 5.13 µM | 1.35 µM | 2.87 µM | 6.21 µM | 19.2 µM | 2.07 µM | 3.8 µM | 1.88 µM | 3.47 µM | 2.01 µM | 4.45 µM | 2.23 µM | 10.3 µM | 1.68 µM | 3.85 µM | 1.55 µM | 4.35 µM
Nc1cccc2c1CN(C1CCC(=O)NC1=O)C2=O (stereo not given) | > 100 µM | > 100 µM | > 100 µM | > 100 µM | > 100 µM | > 100 µM | > 100 µM | > 100 µM | > 100 µM | > 100 µM | > 100 µM | > 100 µM | > 100 µM | > 100 µM | > 100 µM | > 100 µM | > 100 µM | > 100 µM | > 100 µM | > 100 µM
